Test results taken from patent US8859599B2, “Androgen receptor modulating compounds, preparation and uses thereof” (priority 2009, dated 2014).
Read-outs that look alike come from different tables or passages of the source.

Tests used:
LNCaP cells [1] = test: Sulforhodamine B (SRB) in vitro chemosensitivity assay on LNCaP cells; assay type: cell-based; conditions: for LC50: read-out: cytocidal effects by 50% (LC50), LNCaP cells, 144 h exposure; for LC50 / cytocidal effects by 50% (LC50): n.r. = not reached
Description: (§1) Sulforhodamine B (SRB) assay was used according to the method by Skehan et al. (JNCI, 1990). Briefly, cells were collected by trypsinization, counted and plated at a density of 5,000 cells/well in 96-well flat-bottomed microtiter plates (100 μl of cell suspension/well). In the chemosensitivity assay, experiments were run in octuplicate, and each experiment was repeated three times. The optical density (OD) of cells was determined at a wavelength of 490 nm by a colorimetric plate reader.
(§2) Growth inhibition and cytocidal effect of drugs were calculated according to the formula reported by Monks et al. (JNCI, 1991): [(ODtreated−ODzero)/(ODcontrol−ODzero)]×100%, when ODtreated is > to ODzero. If ODtreated is above ODzero, treatment has induced a cytostatic effect, whereas if ODtreated is below ODzero, cell killing has occurred. The ODzero depicts the cell number at the moment of drug addition, the ODcontrol reflects the cell number in untreated wells and the ODtreated reflects the cell number in treated wells on the day of the assay. TUNEL Assay
The authors examined the antitumour activity of the compounds for which the synthesis is described above, in the hormone-sensitive prostate cancer cell line LNCaP. (R)-Bicalutamide and the novel compounds were tested at the increasing concentrations of […]. The highest dose used was chosen on the basis of the clinically achievable peak plasma concentration reported in the literature for bicalutamide (Cockshott I D. Clin Pharmacokinet. 2004; 43 (13) 855-78).
After 144-hr exposure time, the cytotoxic effect of the molecules was calculated according to the method of Monks et al. (Monks A, et al., J. Nat. Cancer Inst. 1991; 83: 757-66).

PC-3 = test: SRB cytotoxicity on PC-3 cells; assay type: cell-based, human; conditions: PC-3 cells (no AR), 144 h exposure
Description: (§3) Finally, compounds were also tested on HepG2 cells, originally isolated from a primary hepatoblastoma of a child, purchased from ATCC.
as §1, §2
(§4) The authors tested the antitumour activity of the compounds also on PC-3 and DU145 cancer cell lines, representative of hormone-refractory prostate cancer due to AR receptor absence.

DU145 = test: SRB cytotoxicity on DU145 cells; assay type: cell-based, human; conditions: DU145 cells (no AR), 144 h exposure
Description: as §3, §1, §2, §4

LNCaP cells [2] = test: TUNEL assay of apoptotic cells in LNCaP; assay type: cell-based, human; conditions: 144-h exposure, 20.0 μM
Description: Cells were fixed in 1% paraformaldehyde in PBS on ice for 15 min, suspended in ice cold ethanol (70%) and stored overnight at −20° C. Cells were then washed twice in PBS and resuspended in PBS containing 0.1% Triton X-100 for 5 min at 4° C. Thereafter, samples were incubated in 50 μl of solution containing TdT and FITC-conjugated dUTP deoxynucleotides 1:1 (Roche Diagnostic GmbH, Mannheim, Germany) in a humidified atmosphere for 90 min at 37° C. in the dark, washed in PBS, counterstained with propidium iodide (2.5 μg/ml, MP Biomedicals, Verona, Italy) and RNAse (10 Kunits/ml, Sigma Aldrich, Milan, Italy) for 30 min at 4° C. in the dark and analyzed by flow cytometry.
After the end of drug exposures, medium was removed and cells were detached from the flasks by trypsin treatment, washed twice with PBS and stained according to the different methods specified below. Flow cytometric analysis was performed using a FACS Canto flow cytometer (Becton Dickinson, San Diego, Calif.). Data acquisition and analysis were performed using FACSDiva software (Becton Dickinson). Samples were run in triplicate and 10,000 events were collected for each replica. Data were the average of three experiments, with errors under 5%.
The cells, before TUNEL assay, were continuously exposed to the anti-androgen compounds for 144 hours at the concentration of 20.0 μM.

LNCaP-AR cells = test: TUNEL assay of apoptotic cells in LNCaP-AR; assay type: cell-based, human; conditions: LNCaP-AR, 144-h exposure, 20.0 μM, TUNEL
[3] = system: normal stem cells derived from human peripheral blood stem cells; test: Colony-forming cell assay (GM-CFU); assay type: cell-based; conditions: highest concentration tested, 14 days incubation
Description: The colony-forming cell assay was used as previously described [Motta M R et al., Exp Hematol 1997; 25:1261-1269]. In brief, for each molecule, 5×10^4 cells were plated in duplicate in a complete culture medium (MethoCult H4434, StemCell Technologies, Vancouver, Canada) containing different concentrations (0.2, 2, and 20 μmol/l) of the compound. After 14 days of incubation in a humidified atmosphere of 5% CO2 at the temperature of 37° C., granulocyte macrophage colony-forming unit (GM-CFU) aggregates of more than 50 cells were counted. Control cells were incubated under the same conditions but in drug-free medium.
The authors also evaluated the potential toxicity of some of the novel compounds in normal cells as the ability of the drugs to inhibit clonogenic growth of normal stem cells derived from human peripheral blood stem cells (FIG. 37). The exposure of hematopoietic precursor to the compounds, caused low ((S)-37) or negligible (, (R)-22, (R)-23, (R)-10) toxicity at the highest concentration tested.

HepG2 cells = test: Cytotoxic activity on hepatoblastoma cell line HepG2; assay type: cell-based, human; conditions: up to highest concentration tested
Description: as §3, §1, §2
The authors evaluated in vitro the potential hepato-toxicity of some of the novel compounds on HepG2 cell line, a human hepatoblastoma cell line that retains the specialized function of normal hepatocytes [Knowles B B, et al., Science 1980, 209:497-499; Aden D P, et al., Nature, 1979, 282:615-616].

[4] = Homo sapiens, LNCaP, 144 h, read-out: Growth inhibition (GI50), LNCaP cells, 144 h exposure

`N#Cc1ccc(NC(=O)[C@@](N)(CS(=O)(=O)c2ccc(F)cc2)c2ccccc2)cc1C(F)(F)F` [(R)-9] was tested, and the LC50 (LNCaP cells [1]; Homo sapiens, LNCaP, 144 h) was 15 µM, the “cytocidal (cell killing) activity” value (LNCaP cells [1]; LNCaP cells, 144 h exposure) was “cytocidal activity” and the GI50 (LNCaP cells [1]; read-out: Growth inhibition (GI50), LNCaP cells, 144 h exposure) was 1.6 µM. The “cytotoxic properties compared to effects on LNCaP and LNCaP-AR cells” value (“cytotoxic properties compared to effects” for short) (PC-3) was “significant reduction in their cytotoxic proprieties”, the “cytotoxic properties compared to effects” value (DU145) was “significant reduction in their cytotoxic proprieties” and the “Apoptotic cells (%)” value (LNCaP cells [2]) was 93.5%. The “Apoptotic cells (%)” value (LNCaP-AR cells) was 83.5%.
In the case of `C[C@](N)(CS(=O)(=O)c1ccc(F)cc1)C(=O)Nc1ccc(C#N)c(C(F)(F)F)c1` [(R)-23, (R)-2-amino-N-(4-cyano-3-(trifluoromethyl)phenyl)-3-(4-fluorophenylsulfonyl)-2-methyl propanamide], the GI50 (LNCaP cells [1]; [4]) is reported as 10.6 µM, the “cytocidal effects by 50% (LC50)” value (LNCaP cells [1]; LNCaP cells, 144 h exposure) is reported as “n.r” and the “toxicity: inhibition of clonogenic growth of hematopoietic precursors” value [3] is reported as “negligible”. The potential hepato-toxicity (HepG2 cells) was “negligible toxicity”.
`C[C@](O)(CS(=O)(=O)c1ccc(F)cc1)C(=O)Nc1ccc(C#N)c(C(F)(F)F)c1` [(R)-Bicalutamide, reference compound] was tested, and the GI50 (LNCaP cells [1]; Homo sapiens, LNCaP cells, 144 h exposure, read-out: Growth inhibition (GI50)) was 1.8 µM, the “cytocidal effects by 50% (LC50)” value (LNCaP cells [1]; LNCaP cells, 144 h exposure) was “n.r” and the “Apoptotic cells (%)” value (LNCaP cells [2]) was 2.1%. The “Apoptotic cells (%)” value (LNCaP-AR cells) was 1.0%.
`CC(C)(C)S(=O)(=O)N[C@](C)(CS(=O)(=O)c1ccc(F)cc1)C(=O)Nc1ccc(C#N)c(C(F)(F)F)c1` [(S)-22] was tested, and the GI50 (LNCaP cells [1]; [4]) was 7 µM, the LC50 (LNCaP cells [1]; Homo sapiens, LNCaP, 144 h) was 19.8 µM and the “cytocidal (cell killing) activity” value (LNCaP cells [1]; LNCaP cells, 144 h exposure) was “cytocidal activity”. For the same molecule, the “cytotoxic properties compared to effects” value (PC-3) was “significant reduction in their cytotoxic proprieties”, the “cytotoxic properties compared to effects” value (DU145) was “significant reduction in their cytotoxic proprieties” and the “Apoptotic cells (%)” value (LNCaP cells [2]) was 6.2%. The “Apoptotic cells (%)” value (LNCaP-AR cells) was 0.0%.
With `Cc1ccc(S(=O)(=O)N[C@](C)(CS(=O)(=O)c2ccc(F)cc2)C(=O)Nc2ccc(C#N)c(C(F)(F)F)c2)cc1` [(S)-26] the GI50 (LNCaP cells [1]; [4]) was 6.3 µM, the LC50 (LNCaP cells [1]; Homo sapiens, LNCaP, 144 h) was 18.3 µM and the “cytotoxic properties compared to effects” value (PC-3) was “significant reduction in their cytotoxic proprieties”. For the same molecule, the “cytotoxic properties compared to effects” value (DU145) was “significant reduction in their cytotoxic proprieties”, the “Apoptotic cells (%)” value (LNCaP cells [2]) was 77.5% and the “Apoptotic cells (%)” value (LNCaP-AR cells) was 91.6%.
